From US20230302160A1, “TUMOR CONTRAST COMPOUND, PREPARATION METHOD THEREFOR AND APPLICATION THEREOF IN TUMOR DIAGNOSTIC IMAGING” (Ningbo Haibo Biotechnology Co., Ltd, priority 2020, published 2023) come the findings set out here.

Structures are written as SMILES. Like-named read-outs stand apart in the source and are kept apart here.

A short description of data set [1]: Fluorescence emission spectroscopy test after mixing with surfactin in different ratios. It is filed as physicochemical. Particulars: for fluorescence quenching in aqueous solution under the action of surfactin compared with methanol solution (emission spectra): compound 20 μM, Ex=730 nm, Em=760-960 nm, ratio 1:5 stated for Compounds 1-3; for fluorescence quenching effect when the amount of surfactin was reduced: compound:surfactin from 1:5 to 1:1, 1:0.2.
Method: Surfactin in different concentrations was added to the aqueous solution of the corresponding compound (final concentration of 20 μM), and the molar ratio of the compound to be tested to surfactin was 1:5, 1:1, 1:0.2. A methanol solution of the corresponding compound (final concentration of 20 μM) was used as a positive control. The test solution was shaken for 5 minutes and its fluorescence emission spectra (Ex=730 nm, Em=760-960 nm) were detected using a fluorescence spectrophotometer.

A short description of data set [2]: Fluorescence quenching effect after mixing with surfactin in different ratios (fluorescence imager, ROI). It is filed as physicochemical. Particulars: compound 20 μM with surfactin. Here is the method: The test solution was shaken for 5 min and added to a black 96-well plate with 50 ul of test solution per experimental well. Then a fluorescence imager was used for imaging. The photos were taken under Ex=745 nm, Em=820 nm. The ROI (Region of Interest) value for each well was quantitatively calculated.

Data set [3] has as its system diseased colonic tissue in a mouse primary bowel cancer tumor model (APCmin/+). Kind of data set: Near-infrared imaging of diseased colon tissue immersed in compound/surfactin mixture, primary bowel cancer model. Particulars: for recognition of tumor lesions: mixture with surfactin 1:5 (20 μM/100 μM), colon tissue immersed 12 min; for imaging ranking: mixture with surfactin 1:5, colon tissue immersed 12 min. The procedure:
Establishment of the mouse primary bowel cancer tumor model of APCmin/+ mouse model: parent C57BL/6J-APC min/+ mice and C57BL/6J wt mice were caged and propagated. The genotype of the offspring was detected and the offspring C57BL/6J-APC min/+ mice (diseased mice) were screened. The offspring C57BL/6J-APC min/+ mice were killed at week 20. Mice were dissected and diseased colon tissue was taken. Colon was cut longitudinally for subsequent tests.
Compounds 1-8 were added to the aqueous solution of surfactin.
The diseased colon tissue of mice was immersed in the above fluid. A fluorescence imager was used for imaging after 12 min.

Data set [4] concerns tumor tissue in a mouse subcutaneous xenograft renal clear cell carcinoma tumor model (786o). Kind of data set: Near-infrared imaging of excised tumor tissue immersed in compound/surfactin solution, renal clear cell carcinoma model. The settings on record: compound 20 μM, surfactin 100 μM (1:5), 786o xenograft tumor tissue immersed; for correlation between uptake by tumor tissues and immersion time: ROI. The procedure: (§1) Mice were dissected, and tumor tissues were taken.
Compounds 1-8 were added to the aqueous solution of surfactin. The final concentration of surfactin was 100 μM, and the final concentration of each compound was 20 μM (the molar ratio of the compound to surfactant was 1:5).
(§2) The tumor tissue was immersed in the above liquid.

Data set [5] concerns organic anion transporting polypeptides (OATPs). Particulars: compound:surfactin 1:5, 1 mM sodium bromosulfophthalein (50 equivalent), renal clear cell carcinoma xenograft tumor tissue.
Method: Female nude mice around 5 weeks of age were ordered and subjected to subcutaneous renal clear cell cancer cell 786o inoculation after one week of barrier environmental adaptation at a specific position above the right lower limb (3×10^6/pce, suspended in 200 μl PBS solution). When the tumor volume reached 50-150 mm^3 (about 12-22 days), nude mice were randomly grouped with 3 mice in each experimental group. Mice were dissected, and tumor tissues were taken.
The tumor tissue was immersed in the above liquid. A fluorescence imager was used for imaging after a specified time.
For data set [6] the following is noted: molar ratio 1:1. The procedure: Different surfactants were added to the aqueous solution of Compound 4 (final concentration of […]), and the molar ratio of the compound to be tested to surfactin was 1:1. In addition, a methanol solution of the compound (final concentration of 20 μM) was used as a positive control. The test solution was shaken for 5 minutes and its fluorescence emission spectra (Ex=730 nm, Em=760-960 nm) were detected using a fluorescence spectrophotometer.

In data set [7] the test system is human renal cancer cell line A498. Kind of data set: Fluorescence localization imaging in human renal cancer cell line A498. Particulars: same method as Example 2; for intracellular localization: A498 cells. It is filed as cell-based. Here is the method: 786o cells (3×10^5/well) were seeded in a 6-well plate in advance and placed in a cell culture incubator for 48 h. After the culture medium was blotted, a culture medium comprising the corresponding compound (5 μM) and Mito-tracker (0.2 nM) was added to the experimental well, incubated for 30 min, cleaned three times with PBS solution, and imaged using a fluorescence microscope equipped with an infrared camera and a continuous LED light source. The near-infrared photos were taken under Ex=745 nm, Em=820 nm; the Mito-tracker photos were taken under Ex=488 nm and Em=520 nm.
The same method as Example 2 was employed except that the human renal cancer cell line A498 was used to detect the localization of Compounds 4, 5 within the cell.

For data set [8], the system named is tumor tissue in a mouse subcutaneous xenograft breast cancer tumor model. The data set is described as follows: Near-infrared imaging of tumor tissue, breast cancer model. The settings on record: compound:surfactin 1:5, breast cancer xenograft tumor tissue; for correlation between uptake by tumor tissues and immersion time: ROI.
Source text: as §1, §2

`CC1(C)C(/C=C/C2=C(Cl)C(=C/C=C3/N(CCCCCC(=O)O)c4ccccc4C3(C)C)/CCC2)=[N+](CCCCCC(=O)O)c2ccccc21` [Compound 1, reference compound]: in data set [1], the “fluorescence quenching in aqueous solution under the action of surfactin compared with methanol solution (emission spectra)” value was “obvious fluorescence quenching” and the “fluorescence quenching effect when the amount of surfactin was reduced” value was “significantly reduced”. Further, the “fluorescence quenching effect, comparison between compounds” value in data set [2] is on record as “the worst”. In addition, the “recognition of tumor lesions” value in data set [3] is reported as “had a recognition effect”. Besides, in data set [4], the “reason for near-infrared imaging of tumor tissues” value (from here on “reason for near-infrared imaging”) is listed as “non-specific adsorption of the compounds by tissues”; the “correlation between uptake by tumor tissues and immersion time” value (“correlation between uptake” for short) is “no obvious positive correlation”.

As for `CCN1/C(=C/C=C2\CCCC(/C=C/C3=[N+](CC)c4ccccc4C3(C)C)=C2Cl)C(C)(C)c2ccccc21` [Compound 2, reference compound], in data set [1], the “fluorescence quenching in aqueous solution under the action of surfactin compared with methanol solution (emission spectra)” value is recorded as “obvious fluorescence quenching” and the “fluorescence quenching effect when the amount of surfactin was reduced” value is given as “significantly reduced”. Further, the “recognition of tumor lesions” value in data set [3] was “had a recognition effect”. Further, in data set [4], the “reason for near-infrared imaging” value is recorded as “non-specific adsorption of the compounds by tissues”; the “correlation between uptake” value is given as “no obvious positive correlation”.

For `CC[N+]1=C(/C=C/C2=C(Cl)C(=C/C=C3/N(CCCCCC(=O)O)c4ccccc4C3(C)C)/CCC2)C(C)(C)c2ccccc21` [Compound 3, reference compound], in data set [1], the “fluorescence quenching in aqueous solution under the action of surfactin compared with methanol solution (emission spectra)” value is recorded as “obvious fluorescence quenching” and the “fluorescence quenching effect when the amount of surfactin was reduced” value is reported as “significantly reduced”. Moreover, the “recognition of tumor lesions” value in data set [3] is “had a recognition effect”. Further, in data set [4], the “reason for near-infrared imaging” value is recorded as “non-specific adsorption of the compounds by tissues”; the “correlation between uptake” value was “no obvious positive correlation”.

For the compound `CC[N+]1=C(/C=C/C2=C(Cl)C(=C/C=C3/N(CCCCCC(=O)Oc4ccccc4)c4ccccc4C3(C)C)/CCC2)C(C)(C)c2ccccc21` [Compound 4], in data set [1], the “fluorescence quenching in aqueous solution under the action of surfactin compared with methanol solution (emission spectra)” value is “obvious fluorescence quenching” and the “fluorescence quenching effect when the amount of surfactin was reduced” value was “not significantly reduced”. Moreover, the “effect of excessive sodium bromosulfophthalein on uptake by tumor tissues” value in data set [5] is “effectively reduce the uptake”. The “fluorescence quenching effect, comparison between compounds” value in data set [2] was “better than that of Compounds 1, 2 and 3”. The “fluorescence signal in aqueous solution after mixing” value (from here on “fluorescence signal”) in data set [6] (mixed with anionic surfactants (surfactin, sodium dodecyl sulfonate, sodium dodecyl benzene sulfonate)) is “substantially no fluorescence signal”. Besides, in data set [6] (mixed with cationic surfactants (dodecyltrimethylammonium chloride, tetrabutylammonium iodide)), the “fluorescence signal” value was “still fluorescence signal”. Further, the “fluorescence signal” value in data set [6] (mixed with human serum albumin) is listed as “still fluorescence signal”. The “fluorescence signal” value in data set [6] (mixed with nonionic surfactants (Kolliphor, P123)) is “still fluorescence signal”. Moreover, in data set [3], the “recognition of tumor lesions” value was “high specific recognition” and the imaging ranking result is “best imaged”. Further, in data set [4], the “overall imaging of tumor tissue” value is “optimal imaging of tumor tissue”; the “reason for near-infrared imaging” value is recorded as “targeted recognition of tumor tissues by the compounds”; the “uptake of the compound by tumor tissue (level)” value (“uptake of the compound” below) is reported as “high uptake”; the “correlation between uptake” value is “an obvious positive correlation”. For the same compound, in data set [7], the intracellular localization result is reported as “enriched in mitochondria” and the “uptake by tumor cells” value is listed as “uptaken by tumor cells”. In addition, in data set [8], the “uptake of the compound” value was “higher”; the “correlation between uptake” value was “an obvious positive correlation”.

On to `CC[N+]1=C(/C=C/C2=C(Cl)C(=C/C=C3/N(CCCCCC(=O)Oc4ccc(NC(=O)OC(C)(C)C)cc4)c4ccccc4C3(C)C)/CCC2)C(C)(C)c2ccccc21` [Compound 5], for which, in data set [1], the “fluorescence quenching in aqueous solution under the action of surfactin compared with methanol solution (emission spectra)” value was “obvious fluorescence quenching” and the “fluorescence quenching effect when the amount of surfactin was reduced” value is given as “not significantly reduced”. Further, in data set [2], the “fluorescence quenching effect, comparison between compounds” value is “better than that of Compounds 1, 2 and 3”. Further, the “recognition of tumor lesions” value in data set [3] is recorded as “high specific recognition”. For the same compound, in data set [4], the “reason for near-infrared imaging” value is “targeted recognition of tumor tissue by the compounds”; the “uptake of the compound” value is recorded as “low uptake”; the “correlation between uptake” value was “a certain positive correlation”. Moreover, in data set [7], the intracellular localization result was “enriched in mitochondria” and the “uptake by tumor cells” value is listed as “uptaken by tumor cells”.

Take `CC[N+]1=C(/C=C/C2=C(Cl)C(=C/C=C3/N(CCCCCC(=O)Nc4ccc(NC(=O)OC(C)(C)C)cc4)c4ccccc4C3(C)C)/CCC2)C(C)(C)c2ccccc21` [Compound 6]: in data set [1], the “fluorescence quenching in aqueous solution under the action of surfactin compared with methanol solution (emission spectra)” value is reported as “obvious fluorescence quenching” and the “fluorescence quenching effect when the amount of surfactin was reduced” value was “not significantly reduced”. Besides, in data set [3], the “recognition of tumor lesions” value is given as “high specific recognition” and the imaging ranking entry is “best imaged”. For the same compound, in data set [4], the “overall imaging of tumor tissue” value is recorded as “optimal imaging of tumor tissue”; the “reason for near-infrared imaging” value is reported as “targeted recognition of tumor tissues by the compounds”; the “uptake of the compound” value is recorded as “high uptake”; the “correlation between uptake” value is reported as “an obvious positive correlation”. In data set [8], the “uptake of the compound” value is recorded as “higher”; the “correlation between uptake” value is reported as “an obvious positive correlation”.
